Measured values published in the NIST ThermoML archive (doi:10.1016/j.jct.2015.01.004).
Where “and” joins values, the source holds several entries; their conditions need not be identical. Identical values can stand only once.

Assay: molar heat capacity at constant pressure; xn = mol fraction of the nth substance listed
Conditions: 100 kPa

[Si] [silicon] + [Li]
Conditions	molar heat capacity at constant pressure
213.05 K, Crystal of intercomponent compound 2, relaxation calorimeter, x2 = 0.804	19.41 J/K/mol
217.1 K, Crystal of intercomponent compound 2, relaxation calorimeter, x2 = 0.804	19.42 J/K/mol
217.11 K, Crystal of intercomponent compound 1, relaxation calorimetry, x2 = 0.81	19.04 J/K/mol
217.12 K, Crystal of intercomponent compound 2, relaxation calorimeter, x2 = 0.804	19.59 J/K/mol
220 K, Crystal of intercomponent compound 1, relaxation calorimetry + DSC, x2 = 0.81	19.27 J/K/mol
220 K, Crystal of intercomponent compound 2, relaxation calorimetry + DSC, x2 = 0.804	19.69 J/K/mol
221.11 K, Crystal of intercomponent compound 2, relaxation calorimeter, x2 = 0.804	19.62 J/K/mol
221.12 K, Crystal of intercomponent compound 1, relaxation calorimetry, x2 = 0.81	19.24 J/K/mol
221.13 K, Crystal of intercomponent compound 2, relaxation calorimeter, x2 = 0.804	19.84 J/K/mol
225.23 K, Crystal of intercomponent compound 2, relaxation calorimeter, x2 = 0.804	19.86 J/K/mol
225.24 K, Crystal of intercomponent compound 1, relaxation calorimetry, x2 = 0.81	19.46 J/K/mol
225.25 K, Crystal of intercomponent compound 2, relaxation calorimeter, x2 = 0.804	20.03 J/K/mol
229.28 K, Crystal of intercomponent compound 2, relaxation calorimeter, x2 = 0.804	20.05 J/K/mol
229.3 K, Crystal of intercomponent compound 1, relaxation calorimetry, x2 = 0.81	19.66 J/K/mol
229.31 K, Crystal of intercomponent compound 2, relaxation calorimeter, x2 = 0.804	20.22 J/K/mol
230 K, Crystal of intercomponent compound 1, relaxation calorimetry + DSC, x2 = 0.81	19.74 J/K/mol
230 K, Crystal of intercomponent compound 2, relaxation calorimetry + DSC, x2 = 0.804	20.16 J/K/mol
233.29 K, Crystal of intercomponent compound 2, relaxation calorimeter, x2 = 0.804	20.23 J/K/mol
233.3 K, Crystal of intercomponent compound 1, relaxation calorimetry, x2 = 0.81	19.83 J/K/mol
233.31 K, Crystal of intercomponent compound 2, relaxation calorimeter, x2 = 0.804	20.38 J/K/mol
237.4 K, Crystal of intercomponent compound 2, relaxation calorimeter, x2 = 0.804	20.4 J/K/mol
237.41 K, Crystal of intercomponent compound 1, relaxation calorimetry, x2 = 0.81	20 J/K/mol
237.43 K, Crystal of intercomponent compound 2, relaxation calorimeter, x2 = 0.804	20.54 J/K/mol
240 K, Crystal of intercomponent compound 1, relaxation calorimetry + DSC, x2 = 0.81	20.18 J/K/mol
240 K, Crystal of intercomponent compound 2, relaxation calorimetry + DSC, x2 = 0.804	20.58 J/K/mol
241.46 K, Crystal of intercomponent compound 2, relaxation calorimeter, x2 = 0.804	20.62 J/K/mol
241.48 K, Crystal of intercomponent compound 1, relaxation calorimetry, x2 = 0.81	20.17 J/K/mol
241.49 K, Crystal of intercomponent compound 2, relaxation calorimeter, x2 = 0.804	20.73 J/K/mol
245.47 K, Crystal of intercomponent compound 2, relaxation calorimeter, x2 = 0.804	20.87 J/K/mol
245.48 K, Crystal of intercomponent compound 1, relaxation calorimetry, x2 = 0.81	20.3 J/K/mol
245.5 K, Crystal of intercomponent compound 2, relaxation calorimeter, x2 = 0.804	20.93 J/K/mol
249.59 K, Crystal of intercomponent compound 2, relaxation calorimeter, x2 = 0.804	21 J/K/mol
249.6 K, Crystal of intercomponent compound 1, relaxation calorimetry, x2 = 0.81	20.44 J/K/mol
249.62 K, Crystal of intercomponent compound 2, relaxation calorimeter, x2 = 0.804	21.13 J/K/mol
250 K, Crystal of intercomponent compound 1, relaxation calorimetry + DSC, x2 = 0.81	20.59 J/K/mol
250 K, Crystal of intercomponent compound 2, relaxation calorimetry + DSC, x2 = 0.804	20.99 J/K/mol
253.66 K, Crystal of intercomponent compound 2, relaxation calorimeter, x2 = 0.804	21.14 J/K/mol
253.67 K, Crystal of intercomponent compound 1, relaxation calorimetry, x2 = 0.81	20.58 J/K/mol
253.68 K, Crystal of intercomponent compound 2, relaxation calorimeter, x2 = 0.804	21.27 J/K/mol
257.65 K, Crystal of intercomponent compound 2, relaxation calorimeter, x2 = 0.804	21.3 J/K/mol
257.66 K, Crystal of intercomponent compound 1, relaxation calorimetry, x2 = 0.81	20.7 J/K/mol
257.68 K, Crystal of intercomponent compound 2, relaxation calorimeter, x2 = 0.804	21.42 J/K/mol
260 K, Crystal of intercomponent compound 1, relaxation calorimetry + DSC, x2 = 0.81	20.98 J/K/mol
260 K, Crystal of intercomponent compound 2, relaxation calorimetry + DSC, x2 = 0.804	21.37 J/K/mol
261.78 K, Crystal of intercomponent compound 1, relaxation calorimetry, x2 = 0.81	20.8 J/K/mol
261.78 K, Crystal of intercomponent compound 2, relaxation calorimeter, x2 = 0.804	21.42 J/K/mol
261.79 K, Crystal of intercomponent compound 2, relaxation calorimeter, x2 = 0.804	21.54 J/K/mol
265.83 K, Crystal of intercomponent compound 2, relaxation calorimeter, x2 = 0.804	21.55 J/K/mol
265.84 K, Crystal of intercomponent compound 1, relaxation calorimetry, x2 = 0.81	20.92 J/K/mol
265.86 K, Crystal of intercomponent compound 2, relaxation calorimeter, x2 = 0.804	21.64 J/K/mol
269.82 K, Crystal of intercomponent compound 2, relaxation calorimeter, x2 = 0.804	21.67 J/K/mol
269.85 K, Crystal of intercomponent compound 1, relaxation calorimetry, x2 = 0.81	21.06 J/K/mol
269.85 K, Crystal of intercomponent compound 2, relaxation calorimeter, x2 = 0.804	21.75 J/K/mol
270 K, Crystal of intercomponent compound 1, relaxation calorimetry + DSC, x2 = 0.81	21.36 J/K/mol
270 K, Crystal of intercomponent compound 2, relaxation calorimetry + DSC, x2 = 0.804	21.73 J/K/mol
273.88 K, Crystal of intercomponent compound 2, relaxation calorimeter, x2 = 0.804	21.84 J/K/mol
273.9 K, Crystal of intercomponent compound 1, relaxation calorimetry, x2 = 0.81	21.15 J/K/mol
273.91 K, Crystal of intercomponent compound 2, relaxation calorimeter, x2 = 0.804	21.9 J/K/mol
278.02 K, Crystal of intercomponent compound 1, relaxation calorimetry, x2 = 0.81	21.25 J/K/mol
278.02 K, Crystal of intercomponent compound 2, relaxation calorimeter, x2 = 0.804	21.93 J/K/mol
278.04 K, Crystal of intercomponent compound 2, relaxation calorimeter, x2 = 0.804	22 J/K/mol
280 K, Crystal of intercomponent compound 1, relaxation calorimetry + DSC, x2 = 0.81	21.72 J/K/mol
280 K, Crystal of intercomponent compound 2, relaxation calorimetry + DSC, x2 = 0.804	22.09 J/K/mol
282.07 K, Crystal of intercomponent compound 2, relaxation calorimeter, x2 = 0.804	22.06 J/K/mol
282.08 K, Crystal of intercomponent compound 1, relaxation calorimetry, x2 = 0.81	21.37 J/K/mol
282.09 K, Crystal of intercomponent compound 2, relaxation calorimeter, x2 = 0.804	22.11 J/K/mol
284.87 K, Crystal of intercomponent compound 1, Small sample (50 mg) DSC, x2 = 0.81	22.13 J/K/mol and 22.16 J/K/mol
284.87 K, Crystal of intercomponent compound 2, Small sample (50 mg) DSC, x2 = 0.804	22.41 J/K/mol
286.06 K, Crystal of intercomponent compound 2, relaxation calorimeter, x2 = 0.804	22.16 J/K/mol
286.08 K, Crystal of intercomponent compound 1, relaxation calorimetry, x2 = 0.81	21.42 J/K/mol
286.08 K, Crystal of intercomponent compound 2, relaxation calorimeter, x2 = 0.804	22.26 J/K/mol
290 K, Crystal of intercomponent compound 1, relaxation calorimetry + DSC, x2 = 0.81	22.08 J/K/mol
290 K, Crystal of intercomponent compound 2, relaxation calorimetry + DSC, x2 = 0.804	22.45 J/K/mol
290.12 K, Crystal of intercomponent compound 1, relaxation calorimetry, x2 = 0.81	21.52 J/K/mol
290.13 K, Crystal of intercomponent compound 2, relaxation calorimeter, x2 = 0.804	22.36 J/K/mol
294.26 K, Crystal of intercomponent compound 1, relaxation calorimetry, x2 = 0.81	21.6 J/K/mol
294.27 K, Crystal of intercomponent compound 2, relaxation calorimeter, x2 = 0.804	22.5 J/K/mol
294.79 K, Crystal of intercomponent compound 2, Small sample (50 mg) DSC, x2 = 0.804	22.86 J/K/mol
294.8 K, Crystal of intercomponent compound 1, Small sample (50 mg) DSC, x2 = 0.81	22.38 J/K/mol and 22.54 J/K/mol
298.15 K, Crystal of intercomponent compound 1, relaxation calorimetry + DSC, x2 = 0.81	22.38 J/K/mol
